Source: PubChem BioAssay AID248 (DTP/NCI, 2004)
Toxic doses and inconclusive results are not listed. Cut-off read from the data, not from the text of the source: active = T/C of 150% or more; inactive = T/C below 125%.

System: L1210 leukemia ip in BDF1 mice, survival T/C
Assay: NCI In Vivo Anticancer Drug Screen. Data for tumor model L1210 Leukemia (intraperitoneal) in B6D2F1 (BDF1) mice
Conditions: endpoint: mean survival time, higher = longer survival
Summary of the method: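 Transplantable tumor model; survival measured in treated vs vehicle control mice. Value = treated/control.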

[1] = dose: 100.0 mg/kg/injection, schedule: Q01DX009 (ip), vehicle: Klucel (hydroxypropylcellulose) (HPC)
[2] = dose: 200.0 mg/kg/injection, schedule: Q01DX009 (ip), vehicle: Klucel (hydroxypropylcellulose) (HPC)
[3] = dose: 100.0 mg/kg/injection, schedule: Q04DX003 (ip), vehicle: Klucel (hydroxypropylcellulose) (HPC)
[4] = dose: 200.0 mg/kg/injection, schedule: Q04DX003 (ip), vehicle: Klucel (hydroxypropylcellulose) (HPC)
[5] = dose: 400.0 mg/kg/injection, schedule: Q04DX003 (ip), vehicle: Klucel (hydroxypropylcellulose) (HPC)

Measured: T/C

CCCC1OC(C)C(C)O1 (configuration not stated)
inactive: dose: 50.0 mg/kg/injection, schedule: Q01DX009 (ip), vehicle: Klucel (hydroxypropylcellulose) (HPC) 101 % of control | [1] 101 % of control | [2] 101 % of control

COc1ccc(-n2nnnc2N)cc1
inactive: dose: 100.0 mg/kg/injection, schedule: Q01DX001 (ip), vehicle: Klucel (hydroxypropylcellulose) (HPC) 99 % of control | dose: 200.0 mg/kg/injection, schedule: Q01DX001 (ip), vehicle: Klucel (hydroxypropylcellulose) (HPC) 102 % of control | dose: 400.0 mg/kg/injection, schedule: Q01DX001 (ip), vehicle: Klucel (hydroxypropylcellulose) (HPC) 96 % of control

O=[N+]([O-])c1ccc(Oc2ccc(Cl)cc2Cl)c([N+](=O)[O-])c1
inactive: dose: 100.0 mg/kg/injection, schedule: Q01DX001 (ip), vehicle: saline with Tween-80 103 % of control | dose: 100.0 mg/kg/injection, schedule: Q04DX003 (ip), vehicle: saline with Tween-80 105 % of control | dose: 200.0 mg/kg/injection, schedule: Q01DX001 (ip), vehicle: saline with Tween-80 94 % of control | dose: 200.0 mg/kg/injection, schedule: Q04DX003 (ip), vehicle: saline with Tween-80 102 % of control | dose: 222.0 mg/kg/injection, schedule: Q01DX Z (ip), vehicle: methylcellulose (MC) 100 % of control | dose: 333.0 mg/kg/injection, schedule: Q01DX Z (ip), vehicle: methylcellulose (MC) 92 % of control | dose: 400.0 mg/kg/injection, schedule: Q01DX001 (ip), vehicle: saline with Tween-80 97 % of control | dose: 400.0 mg/kg/injection, schedule: Q04DX003 (ip), vehicle: saline with Tween-80 99 % of control | dose: 500.0 mg/kg/injection, schedule: Q01DX Z (ip), vehicle: methylcellulose (MC) 95 % of control

CC(C)OC(=S)SCC(=O)c1ccc(C(F)(F)F)cc1
inactive: dose: 100.0 mg/kg/injection, schedule: Q04DX002 (ip), vehicle: Klucel (hydroxypropylcellulose) (HPC) 96 % of control | dose: 200.0 mg/kg/injection, schedule: Q04DX002 (ip), vehicle: Klucel (hydroxypropylcellulose) (HPC) 92 % of control | dose: 400.0 mg/kg/injection, schedule: Q04DX002 (ip), vehicle: Klucel (hydroxypropylcellulose) (HPC) 92 % of control

CCNCC(=O)N(N=O)C(=O)OCC
inactive: dose: 75.0 mg/kg/injection, schedule: Q01DX001 (ip), vehicle: steriod suspending solution 110 % of control | dose: 150.0 mg/kg/injection, schedule: Q01DX001 (ip), vehicle: steriod suspending solution 102 % of control

Nc1cc2c(cc1Br)-c1ccccc1/C2=N\O
inactive: dose: 100.0 mg/kg/injection, schedule: Q01DX001 (ip), vehicle: carboxymethylcellulose (CMC) 102 % of control | dose: 200.0 mg/kg/injection, schedule: Q01DX001 (ip), vehicle: carboxymethylcellulose (CMC) 102 % of control | dose: 400.0 mg/kg/injection, schedule: Q01DX001 (ip), vehicle: carboxymethylcellulose (CMC) 100 % of control

O=C(Nc1ccc([N+](=O)[O-])cc1Cl)c1ccc(C(=O)Nc2ccc([N+](=O)[O-])cc2Cl)cc1
inactive: dose: 100.0 mg/kg/injection, schedule: Q01DX001 (ip), vehicle: saline 96 % of control | dose: 200.0 mg/kg/injection, schedule: Q01DX001 (ip), vehicle: saline 94 % of control | dose: 400.0 mg/kg/injection, schedule: Q01DX001 (ip), vehicle: saline 91 % of control

ClCc1c(Cl)c(Cl)c(Cl)c(CCl)c1Cl
inactive: [1] 98 % of control | [3] 96 % of control | [2] 96 % of control | [4] 98 % of control | [5] 102 % of control

Cc1ccc(S(=O)(=O)N2CCC(O)(c3ccccc3)CC2)cc1
inactive: [1] 91 % of control | [3] 90 % of control | [2] 90 % of control | [4] 91 % of control | dose: 400.0 mg/kg/injection, schedule: Q01DX009 (ip), vehicle: Klucel (hydroxypropylcellulose) (HPC) 92 % of control | [5] 89 % of control

O=C(CBr)c1ccc(S(=O)(=O)c2ccccc2)cc1
inactive: dose: 5.0 mg/kg/injection, schedule: Q01DX001 (ip), vehicle: carboxymethylcellulose (CMC) 93 % of control | dose: 10.0 mg/kg/injection, schedule: Q01DX001 (ip), vehicle: carboxymethylcellulose (CMC) 93 % of control | dose: 20.0 mg/kg/injection, schedule: Q01DX001 (ip), vehicle: carboxymethylcellulose (CMC) 95 % of control

O=C(Cc1cccc2ccccc12)N/N=C/c1ccc(Cl)cc1Cl
inactive: dose: 100.0 mg/kg/injection, schedule: Q01DX009 (ip), vehicle: saline with Tween-80 96 % of control | dose: 200.0 mg/kg/injection, schedule: Q01DX009 (ip), vehicle: saline with Tween-80 93 % of control
